From ChEMBL document CHEMBL5346911, “From PROTAC to inhibitor: Structure-guided discovery of potent and orally bioavailable BET inhibitors” (Eur J Med Chem, 2023)
≈ marks a conversion by molar mass, not a printed value.

Columns and labels:
[1] = human, microsomes
HD-MB03 = assay: cells; conditions: Homo sapiens, HD-MB03, 72 h
D283 Med = assay: cells; conditions: Homo sapiens, 72 h
cells = conditions: Homo sapiens, NALM16, 72 h
in vitro [2] = conditions: human, plasma
in vitro [3] = conditions: human, plasma; remark: listed apart in the source
[4] = target: T1, Bromodomain-containing protein 2 (Homo sapiens, UniProt P25440); assay: Inhibition of BRD2 BD1 (unknown origin) by TR-FRET assay
[5] = target: T1, Bromodomain-containing protein 2; assay: Inhibition of BRD2 BD2 (unknown origin) by TR-FRET assay
MOLM-13 = assay: cells; conditions: Homo sapiens, MOLM-13, 72 h
MV4-11 = assay: cells; conditions: Homo sapiens, MV4-11, 72 h
[6] = target: T2, Bromodomain-containing protein 4 (Homo sapiens, UniProt O60885)
[7] = target: T2, Bromodomain-containing protein 4; remark: listed apart in the source
[8] = Downregulation of MYC level in human MV4-11 cells at 100 nM measured after 6 hrs by immunoblotting analysis relative to control; type: functional
[9] = Downregulation of MYC level in human MV4-11 cells at 1 uM measured after 6 hrs by immunoblotting analysis relative to control; type: functional
[10] = Apparent volume of distribution during terminal phase in CD1 mouse at 1 mg/kg, iv measured upto 24 hrs by LC-MS/MS method; type: ADME, organism-based; conditions: in vivo
[11] = Tmax in CD1 mouse at 3 mg/kg, po measured upto 24 hrs by LC-MS/MS method; type: ADME, organism-based; conditions: in vivo
[12] = Tmax in CD1 mouse at 10 mg/kg, po measured upto 24 hrs by LC-MS/MS method; type: ADME, organism-based; conditions: in vivo
[13] = Cmax in CD1 mouse at 1 mg/kg, iv measured upto 24 hrs by LC-MS/MS method; type: ADME, organism-based; design: time < 24 hrs, dose 1 mg/kg, route iv; conditions: in vivo
[14] = Cmax in CD1 mouse at 3 mg/kg, po measured upto 24 hrs by LC-MS/MS method; type: ADME, organism-based; design: time < 24 hrs, dose 3 mg/kg, route po; conditions: in vivo
[15] = Cmax in CD1 mouse at 10 mg/kg, po measured upto 24 hrs by LC-MS/MS method; type: ADME, organism-based; design: time < 24 hrs, dose 10 mg/kg, route po; conditions: in vivo
[16] = AUClast in CD1 mouse at 1 mg/kg, iv measured upto 24 hrs by LC-MS/MS method; type: ADME, organism-based; design: time < 24 hrs, dose 1 mg/kg, route iv; conditions: in vivo
[17] = AUClast in CD1 mouse at 3 mg/kg, po measured upto 24 hrs by LC-MS/MS method; type: ADME, organism-based; design: dose 3 mg/kg, time < 24 hrs, route po; conditions: in vivo
[18] = AUClast in CD1 mouse at 10 mg/kg, po measured upto 24 hrs by LC-MS/MS method; type: ADME, organism-based; design: dose 10 mg/kg, time < 24 hrs, route po; conditions: in vivo
[19] = Half life in CD1 mouse at 1 mg/kg, iv measured upto 24 hrs by LC-MS/MS method; type: ADME, organism-based; conditions: in vivo
[20] = Half life in CD1 mouse at 3 mg/kg, po measured upto 24 hrs by LC-MS/MS method; type: ADME, organism-based; conditions: in vivo
[21] = Half life in CD1 mouse at 10 mg/kg, po measured upto 24 hrs by LC-MS/MS method; type: ADME, organism-based; conditions: in vivo
[22] = Unbound clearance in CD1 mouse at 1 mg/kg, iv measured upto 24 hrs by LC-MS/MS method; type: ADME, organism-based; conditions: in vivo
[23] = Unbound clearance in CD1 mouse at 3 mg/kg, po measured upto 24 hrs by LC-MS/MS method; type: ADME, organism-based; conditions: in vivo
[24] = Unbound clearance in CD1 mouse at 10 mg/kg, po measured upto 24 hrs by LC-MS/MS method; type: ADME, organism-based; conditions: in vivo
[25] = Oral bioavailability in CD1 mouse at 3 mg/kg measured upto 24 hrs by LC-MS/MS method; type: ADME, organism-based; conditions: in vivo
[26] = Oral bioavailability in CD1 mouse at 10 mg/kg measured upto 24 hrs by LC-MS/MS method; type: ADME, organism-based; conditions: in vivo
[27] = buffer, pH 7.4, 18 h
in vitro [28] = conditions: human, Caco-2

T1 sequence (P25440 whole entry): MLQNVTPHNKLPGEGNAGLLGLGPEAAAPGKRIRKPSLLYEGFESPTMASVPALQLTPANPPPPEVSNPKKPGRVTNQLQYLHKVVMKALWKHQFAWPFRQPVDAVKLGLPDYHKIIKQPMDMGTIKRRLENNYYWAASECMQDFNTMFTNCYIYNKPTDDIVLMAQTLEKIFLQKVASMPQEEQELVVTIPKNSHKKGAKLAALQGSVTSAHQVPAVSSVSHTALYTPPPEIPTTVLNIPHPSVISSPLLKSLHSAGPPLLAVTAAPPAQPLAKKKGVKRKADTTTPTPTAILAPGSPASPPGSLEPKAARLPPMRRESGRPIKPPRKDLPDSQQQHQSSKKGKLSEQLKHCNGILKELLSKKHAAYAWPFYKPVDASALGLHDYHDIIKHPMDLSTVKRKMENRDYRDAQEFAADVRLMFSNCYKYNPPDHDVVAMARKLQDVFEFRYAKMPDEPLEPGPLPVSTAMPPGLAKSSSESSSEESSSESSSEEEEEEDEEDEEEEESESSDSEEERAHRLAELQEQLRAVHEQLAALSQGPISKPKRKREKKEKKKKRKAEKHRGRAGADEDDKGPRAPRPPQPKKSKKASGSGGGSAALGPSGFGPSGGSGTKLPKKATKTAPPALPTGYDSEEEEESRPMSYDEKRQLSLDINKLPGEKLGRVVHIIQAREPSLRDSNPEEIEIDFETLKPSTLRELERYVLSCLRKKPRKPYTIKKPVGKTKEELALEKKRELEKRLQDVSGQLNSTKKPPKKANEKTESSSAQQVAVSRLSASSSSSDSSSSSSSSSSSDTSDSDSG

Cc1sc2c(c1C)C(c1ccc(Cl)cc1)=N[C@@H](CC(=O)OC(C)(C)C)c1nnc(C)n1-2
t1/2 [1]: 0.4 h | IC50 (HD-MB03): 0.09 µM | IC50 (D283 Med): 0.06 µM | IC50 (cells): 0.018 µM | half-life at 48 h (in vitro [2]): > 100 h | fraction unbound (in vitro [3]): 0.008

Cc1sc2c(c1C)C(c1ccc(Cl)cc1)=N[C@@H](CC(=O)NCCc1c[nH]c3ccccc13)c1nnc(C)n1-2
IC50 [4]: 0.252 µM | IC50 [5]: 0.05 µM | IC50 (HD-MB03): 0.254 µM | IC50 (cells): 0.172 µM | IC50 (MOLM-13): 0.318 µM | IC50 (MV4-11): 0.182 µM

COC(=O)[C@H](Cc1c[nH]cn1)NC(=O)C[C@@H]1N=C(c2ccc(Cl)cc2)c2c(sc(C)c2C)-n2c(C)nnc21
IC50 [4]: 0.032 µM | IC50 [5]: 0.009 µM | IC50 [6]: 0.034 µM | IC50 [7]: 0.006 µM | IC50 (D283 Med): 2.93 µM | IC50 (cells): 0.791 µM | IC50 (MOLM-13): 0.2 µM | IC50 (MV4-11): 1.14 µM

Cc1sc2c(c1C)C(c1ccc(Cl)cc1)=N[C@@H](CC(=O)NCCO)c1nnc(C)n1-2
IC50 (HD-MB03): 0.042 µM | IC50 (D283 Med): 0.413 µM | IC50 (cells): 0.007 µM | IC50 (MOLM-13): 0.008 µM

Cc1sc2c(c1C)C(c1ccc(Cl)cc1)=N[C@@H](CC(=O)NCc1ccccc1)c1nnc(C)n1-2
IC50 [4]: 0.021 µM | IC50 [5]: 0.0002 µM | IC50 [7]: 0.0003 µM | IC50 (HD-MB03): 0.619 µM | IC50 (cells): 0.452 µM | IC50 (MOLM-13): 0.385 µM | half-life at 48 h (in vitro [2]): > 100 h

Cc1sc2c(c1C)C(c1ccc(Cl)cc1)=N[C@@H](CC(=O)NCc1cn(C)cn1)c1nnc(C)n1-2
IC50 [4]: 0.017 µM | IC50 [5]: 0.003 µM | IC50 [6]: 0.082 µM | IC50 [7]: 0.0006 µM | IC50 (HD-MB03): 0.358 µM | IC50 (D283 Med): 0.789 µM | IC50 (cells): 0.093 µM | IC50 (MOLM-13): 0.052 µM | IC50 (MV4-11): 0.143 µM | half-life at 48 h (in vitro [2]): > 100 h

Cc1sc2c(c1C)C(c1ccc(Cl)cc1)=N[C@@H](CC(=O)NCc1cn(C)nn1)c1nnc(C)n1-2
IC50 [4]: 0.639 µM | IC50 [6]: 1.41 µM | IC50 [7]: 0.026 µM | IC50 (HD-MB03): 0.04 µM | IC50 (cells): 0.014 µM | IC50 (MOLM-13): 0.011 µM | IC50 (MV4-11): 0.059 µM | half-life at 48 h (in vitro [2]): > 100 h

Cc1sc2c(c1C)C(c1ccc(Cl)cc1)=N[C@@H](CC(=O)NCc1c[nH]nn1)c1nnc(C)n1-2
IC50 [4]: 0.008 µM | IC50 [6]: 0.079 µM | IC50 [7]: 0.001 µM | IC50 (HD-MB03): 0.003 µM | IC50 (D283 Med): 0.964 µM | IC50 (cells): 0.007 µM | IC50 (MOLM-13): 0.003 µM | IC50 (MV4-11): 0.253 µM | half-life at 48 h (in vitro [2]): > 100 h

Cc1sc2c(c1C)C(c1ccc(Cl)cc1)=N[C@@H](CC(=O)NCC(=O)O)c1nnc(C)n1-2
IC50 [4]: 0.146 µM | IC50 [5]: 0.0003 µM | IC50 [7]: 0.0004 µM | IC50 (HD-MB03): 9.34 µM | IC50 (D283 Med): > 8.85 µM | IC50 (cells): > 8.85 µM | IC50 (MV4-11): 3.06 µM | half-life at 48 h (in vitro [2]): > 100 h

COC(=O)CNC(=O)C[C@@H]1N=C(c2ccc(Cl)cc2)c2c(sc(C)c2C)-n2c(C)nnc21
IC50 (HD-MB03): 0.359 µM | IC50 (D283 Med): 0.337 µM | IC50 (cells): 0.016 µM | IC50 (MOLM-13): 0.009 µM

Cc1sc2c(c1C)C(c1ccc(Cl)cc1)=N[C@@H](CC(=O)Nc1nncs1)c1nnc(C)n1-2
IC50 [5]: 0.0001 µM | Activity [8]: 50% | Activity [9]: 22% | Vz/F [10]: 0.8 L/kg | Tmax [11]: 1 h | Tmax [12]: 0.5 h | Cmax [13]: 1930 ng/mL | Cmax [14]: 1555.3 ng/mL | Cmax [15]: 3155.6 ng/mL | AUClast [16]: 1567.1 ng·h/mL | AUClast [17]: 3275.4 ng·h/mL | AUClast [18]: 9473 ng·h/mL | t1/2 [19]: 1.5 h | t1/2 [20]: 3.9 h | t1/2 [21]: 3.9 h | CL free [22]: 10.6 mL/min/kg | CL free [23]: 15.2 mL/min/kg | CL free [24]: 17.5 mL/min/kg | F [25]: 70% | F [26]: 60% | IC50 [6]: 0.006 µM | IC50 [7]: 0.0002 µM | t1/2 [1]: 3.2 h | solubility [27]: 12 µM (≈ 5.81 µg/mL) | IC50 (HD-MB03): 0.006 µM | IC50 (D283 Med): 0.056 µM | IC50 (cells): 0.003 µM | IC50 (MOLM-13): 0.01 µM | IC50 (MV4-11): 0.02 µM | half-life at 48 h (in vitro [2]): > 100 h | Papp A→B (in vitro [28]): 6.65 ×10⁻⁶ cm/s

Cc1sc2c(c1C)C(c1ccc(Cl)cc1)=N[C@@H](CC(=O)NCc1ccccn1)c1nnc(C)n1-2
IC50 [4]: 0.016 µM | IC50 [5]: 0.0003 µM | IC50 (HD-MB03): 0.263 µM | IC50 (D283 Med): 0.228 µM | IC50 (cells): 0.014 µM | IC50 (MOLM-13): 0.008 µM | IC50 (MV4-11): 0.444 µM

Cc1sc2c(c1C)C(c1ccc(Cl)cc1)=N[C@@H](CC(=O)Nc1nccs1)c1nnc(C)n1-2
IC50 [4]: 0.01 µM | IC50 (HD-MB03): 0.004 µM | IC50 (cells): 0.006 µM | IC50 (MOLM-13): 0.022 µM | IC50 (MV4-11): 0.04 µM | half-life at 48 h (in vitro [2]): > 100 h

Cc1sc2c(c1C)C(c1ccc(Cl)cc1)=N[C@@H](CC(=O)NCc1ccon1)c1nnc(C)n1-2
IC50 [4]: 0.003 µM | IC50 [5]: 0.0001 µM | t1/2 [1]: 0.4 h | solubility [27]: 56.9 µM (≈ 27.4 µg/mL) | IC50 (HD-MB03): 0.017 µM | IC50 (D283 Med): 0.025 µM | IC50 (cells): 0.012 µM | IC50 (MOLM-13): 0.014 µM | IC50 (MV4-11): 0.032 µM | half-life at 48 h (in vitro [2]): > 100 h | Papp A→B (in vitro [28]): 15 ×10⁻⁶ cm/s | fraction unbound (in vitro [3]): 0.065

Cc1sc2c(c1C)C(c1ccc(Cl)cc1)=N[C@@H](CC(=O)NCc1ncco1)c1nnc(C)n1-2
IC50 [4]: 0.009 µM | IC50 [5]: 0.0001 µM | IC50 (HD-MB03): 0.001 µM | IC50 (D283 Med): 0.018 µM | IC50 (MOLM-13): 0.002 µM

Cc1sc2c(c1C)C(c1ccc(Cl)cc1)=N[C@@H](CC(=O)Nc1ccc(O)cc1)c1nnc(C)n1-2 [BIRABRESIB]
t1/2 [1]: 1.7 h | solubility [27]: 23.4 µM (≈ 11.5 µg/mL) | IC50 (D283 Med): 0.066 µM | IC50 (cells): 0.014 µM | IC50 (MOLM-13): 0.011 µM | IC50 (MV4-11): 0.022 µM | half-life at 48 h (in vitro [2]): > 100 h | Papp A→B (in vitro [28]): 22.2 ×10⁻⁶ cm/s | fraction unbound (in vitro [3]): 0.027
